# According to patent US12264139B2, “Aryl sulfonamides as BLT1 antagonists” (Merck Sharp & Dohme LLC, priority 2015, dated 2025):
# Target: T1, human BLT1 receptor (Homo sapiens, UniProt Q15722)
# T1 construct: expressed in transfected cells; host or cells: HEK293
# Test: BLT-1 cAMP Assay
# Assay type: cell-based
# Settings: HEK293 cells recombinantly expressing human BLT1; antagonist activity vs forskolin 4 μM and LTB4 2 nM; cAMP (CisBio kit)
# T1 sequence (Q15722 whole entry): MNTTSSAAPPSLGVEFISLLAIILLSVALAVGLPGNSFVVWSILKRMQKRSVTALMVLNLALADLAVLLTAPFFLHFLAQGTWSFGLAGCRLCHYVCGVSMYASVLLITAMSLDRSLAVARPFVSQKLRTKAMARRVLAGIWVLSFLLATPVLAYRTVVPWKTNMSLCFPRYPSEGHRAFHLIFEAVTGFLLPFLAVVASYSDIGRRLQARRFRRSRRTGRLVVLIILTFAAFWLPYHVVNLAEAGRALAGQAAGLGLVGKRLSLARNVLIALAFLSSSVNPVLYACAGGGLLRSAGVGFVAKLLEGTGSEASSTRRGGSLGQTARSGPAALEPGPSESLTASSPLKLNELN
row,SMILES,EC50
1,"CS(=O)(=O)Nc1ccccc1-c1ccc2c(c1)OC[C@H](Cc1ccccn1)[C@H]2O (single isomer, unassigned) [Example 72, N-{2-[(3S,4R or 3R,4S)-4-hydroxy-3-(pyridin-2-ylmethyl)-3,4-dihydro-2H-chromen-7-yl]phenyl}methanesulfonamide]",2980 nM
2,"CS(=O)(=O)Nc1ccccc1-c1ccc2c(c1)OC[C@@H](Cc1ccccn1)[C@@H]2O (single isomer, unassigned) [Example 73, N-{2-[(3R,4S or 3S,4R)-4-hydroxy-3-(pyridin-2-ylmethyl)-3,4-dihydro-2H-chromen-7-yl]phenyl}methanesulfonamide]",193 nM
3,"CC1(S(=O)(=O)Nc2ccccc2-c2ccc3c(c2)OCC(Cc2ccccn2)C3O)CC1 (single isomer, unassigned) [Example 75, N-(2-((3,4-trans)-4-hydroxy-3-(pyridin-2-ylmethyl)chroman-7-yl)phenyl)-1-methylcyclopropane-1-sulfonamide]",235 nM
4,"O=S(=O)(CC(F)(F)F)Nc1nccnc1-c1ccc2c(c1)OC[C@@H](Cc1ccccn1)[C@@H]2O (single isomer, unassigned) [Example 76, 2,2,2-Trifluoro-N-(3-((3,4-trans)-4-hydroxy-3-(pyridin-2-ylmethyl)chroman-7-yl)pyrazin-2-yl)ethanesulfonamide]",1860 nM
5,"O=S(=O)(CC(F)(F)F)Nc1ncccc1-c1ccc2c(c1)OC[C@@H](Cc1ccccn1)[C@@H]2O (single isomer, unassigned) [Example 77, 2,2,2-Trifluoro-N-(3-((3R,4S or 3S,4R)-4-hydroxy-3-(pyridin-2-ylmethyl)chroman-7-yl)pyridin-2-yl)ethanesulfonamide]",118 nM
6,"O=S(=O)(CC(F)(F)F)Nc1ncccc1-c1ccc2c(c1)OC[C@@H](Cc1ccccn1)[C@@H]2O (single isomer, unassigned) [Example 78, 2,2,2-Trifluoro-N-(3-((3S,4R or 3R,4S)-4-hydroxy-3-(pyridin-2-ylmethyl)chroman-7-yl)pyridin-2-yl)ethanesulfonamide]",1870 nM
7,"O=S(=O)(CC(F)(F)F)Nc1ccccc1-c1ccc2c(c1)OC[C@@H](Cc1ccccn1)[C@@H]2O (single isomer, unassigned) [Example 79, 2,2,2-Trifluoro-N-(2-((3R,4S or 3S,4R)-4-hydroxy-3-(pyridin-2-ylmethyl)chroman-7-yl)phenyl)ethanesulfonamide]",35 nM
8,"O=S(=O)(CC(F)(F)F)Nc1ccccc1-c1ccc2c(c1)OC[C@@H](Cc1ccccn1)[C@@H]2O (single isomer, unassigned) [Example 80, 2,2,2-Trifluoro-N-(2-((3S,4R or 3R,4S)-4-hydroxy-3-(pyridin-2-ylmethyl)chroman-7-yl)phenyl)ethanesulfonamide]",481 nM
9,"O=S(=O)(Nc1ccccc1-c1ccc2c(c1)OC[C@@H](Cc1ccccn1)[C@@H]2O)C(F)F (single isomer, unassigned) [Example 81, 1,1-Difluoro-N-(2-((3R,4S or 3S,4R)-4-hydroxy-3-(pyridin-2-ylmethyl)chroman-7-yl)phenyl)methanesulfonamide]",15 nM
10,"O=S(=O)(Nc1ccccc1-c1ccc2c(c1)OC[C@@H](Cc1ccccn1)[C@@H]2O)C(F)F (single isomer, unassigned) [Example 82, 1,1-Difluoro-N-(2-((3S,4R or 3R,4S)-4-hydroxy-3-(pyridin-2-ylmethyl)chroman-7-yl)phenyl)methanesulfonamide]",119 nM
11,"O=S(=O)(Nc1ccc(F)cc1-c1ccc2c(c1)OC[C@@H](Cc1ccccn1)[C@@H]2O)C(F)(F)F (single isomer, unassigned) [Example 83, 1,1,1-Trifluoro-N-(4-fluoro-2-((3,4-trans)-4-hydroxy-3-(pyridin-2-ylmethyl)chroman-7-yl)phenyl)methanesulfonamide]",14 nM
12,"O=S(=O)(Nc1ncc(F)cc1-c1ccc2c(c1)OC[C@@H](Cc1ccccn1)[C@@H]2O)C(F)(F)F (single isomer, unassigned) [Example 84, 1,1,1-Trifluoro-N-(5-fluoro-3-((3,4-trans)-4-hydroxy-3-(pyridin-2-ylmethyl)chroman-7-yl)pyridin-2-yl)methanesulfonamide]",1610 nM
13,"O=S(=O)(CC(F)(F)F)Nc1ncc(F)cc1-c1ccc2c(c1)OC[C@@H](Cc1ccccn1)[C@@H]2O (single isomer, unassigned) [Example 85]",63 nM
14,"O=S(=O)(Nc1ncccc1-c1ccc2c(c1)OC[C@@H](Cc1ccccn1)[C@@H]2O)C(F)F (single isomer, unassigned) [Example 86, 1,1-Difluoro-N-(3-((3,4-trans)-4-hydroxy-3-(pyridin-2-ylmethyl)chroman-7-yl)pyridin-2-yl)methanesulfonamide]",156 nM
15,"O=S(=O)(Nc1ncccc1-c1ccc2c(c1)OC[C@@H](Cc1ccccn1)[C@@H]2O)C(F)(F)F (single isomer, unassigned) [Example 87, 1,1,1-Trifluoro-N-(3-((3,4-trans)-4-hydroxy-3-(pyridin-2-ylmethyl)chroman-7-yl)pyridin-2-yl)methanesulfonamide]",239 nM
16,"O=S(=O)(CC(F)(F)F)Nc1ncc(C(F)(F)F)nc1-c1ccc2c(c1)OC[C@@H](Cc1ccccn1)[C@@H]2O (single isomer, unassigned) [Example 88, 2,2,2-Trifluoro-N-(3-((3,4-trans)-4-hydroxy-3-(pyridin-2-ylmethyl)chroman-7-yl)-5-(trifluoromethyl)pyrazin-2-yl)ethanesulfonamide]",285 nM
17,"O=S(=O)(Nc1nnc(Cl)cc1-c1ccc2c(c1)OC[C@H](Cc1ccccn1)[C@H]2O)C(F)(F)F (single isomer, unassigned) [Example 89, N-(6-chloro-4-((3R,4S or 3S,4R)-4-hydroxy-3-(pyridin-2-ylmethyl)chroman-7-yl)pyridazin-3-yl)-1,1,1-trifluoromethanesulfonamide]",965 nM
18,"O=S(=O)(Nc1nnccc1-c1ccc2c(c1)OC[C@@H](Cc1ccccn1)[C@@H]2O)C(F)(F)F (single isomer, unassigned) [Example 90, N-(4-((3,4-trans)-4-hydroxy-3-(pyridin-2-ylmethyl)chroman-7-yl)pyridazin-3-yl)-1,1,1-trifluoromethanesulfonamide]",3080 nM
19,"O=S(=O)(Nc1nnc(Cl)cc1-c1ccc2c(c1)OC[C@@H](Cc1ccccn1)[C@@H]2O)C(F)(F)F (single isomer, unassigned) [Example 91, N-(6-chloro-4-((3S,4R or 3R,4S)-4-hydroxy-3-(pyridin-2-ylmethyl)chroman-7-yl)pyridazin-3-yl)-1,1,1-trifluoromethanesulfonamide]",2690 nM
20,"CC(c1csc(-c2ccccc2)n1)[C@@H]1COc2cc(-c3ccccc3NS(=O)(=O)C(F)(F)F)ccc2[C@H]1O (single isomer, unassigned) [Example 92]",80 nM
21,"CC(c1csc(-c2ccccc2)n1)[C@@H]1COc2cc(-c3ccccc3NS(=O)(=O)C(F)(F)F)ccc2[C@H]1O (single isomer, unassigned) [Example 97]",268 nM
22,"CC(c1ccccn1)C1COc2cc(-c3cc(F)ccc3NS(=O)(=O)C(F)(F)F)ccc2C1O (single isomer, unassigned) [Example 100, 1,1,1-trifluoro-N-(4-fluoro-2-(4-hydroxy-3-(1-(pyridin-2-yl)ethyl)chroman-7-yl)phenyl) methanesulfonamide]",72 nM
23,"CC(c1ccccn1)C1COc2cc(-c3cc(F)ccc3NS(=O)(=O)C(F)(F)F)ccc2C1O (single isomer, unassigned) [Example 101, 1,1,1-trifluoro-N-(4-fluoro-2-(4-hydroxy-3-(1-(pyridin-2-yl)ethyl)chroman-7-yl)phenyl) methanesulfonamide]",678 nM
24,"CC(c1ccccn1)C1COc2cc(-c3cc(F)ccc3NS(=O)(=O)C(F)(F)F)ccc2C1O (single isomer, unassigned) [Example 102, 1,1,1-trifluoro-N-(4-fluoro-2-(4-hydroxy-3-(1-(pyridin-2-yl)ethyl)chroman-7-yl)phenyl) methanesulfonamide]",78 nM
25,"CC(c1ccccn1)C1COc2cc(-c3cc(F)ccc3NS(=O)(=O)C(F)(F)F)ccc2C1O (single isomer, unassigned) [Example 103, 1,1,1-trifluoro-N-(4-fluoro-2-(4-hydroxy-3-(1-(pyridin-2-yl)ethyl)chroman-7-yl)phenyl) methanesulfonamide]",1310 nM
26,"O=S(=O)(Nc1ccccc1-c1ccc2c(c1)OC[C@H](Cc1ccccn1)[C@H]2O)C(F)(F)F [Example 54, 1,1,1-trifluoro-N-{2-[(3S,4R)-4-hydroxy-3-(pyridin-2-ylmethyl)-3,4-dihydro-2H-chromen-7-yl]phenyl}-methanesulfonamide]",55 nM
27,"O=S(=O)(Nc1ccccc1-c1ccc2c(c1)OC[C@@H](Cc1ccccn1)[C@@H]2O)C(F)(F)F [Example 55, 1,1,1-trifluoro-N-{2-[(3R,4S)-4-hydroxy-3-(pyridin-2-ylmethyl)-3,4-dihydro-2H-chromen-7-yl]phenyl}-methanesulfonamide]",2020 nM
28,"CC(c1ccccn1)C1COc2cc(-c3cc(F)ccc3NS(=O)(=O)C(F)(F)F)ccc2C1O (stereo not shown) [Example 99, 1,1,1-trifluoro-N-(4-fluoro-2-(4-hydroxy-3-(1-(pyridin-2-yl)ethyl)chroman-7-yl)phenyl) methanesulfonamide]",1 nM
